# Assay results published in ChEMBL document CHEMBL5360526, “Discovery of BET specific bromodomain inhibitors with a novel scaffold” (Bioorg Med Chem, 2022).
# Tests used:
# [1] = biological target: SWI/SNF-related matrix-associated actin-dependent regulator of chromatin subfamily A member 4 (Homo sapiens) (UniProt P51532); experiment: Inhibition of SMARCA4 (unknown origin) assessed as remaining activity
# [2] = biological target: Bromodomain-containing protein 3 (Homo sapiens) (UniProt Q15059); experiment: Inhibition of BRD3 BD2 (unknown origin) assessed as remaining activity
# Bromodomain-containing protein 3 (Homo sapiens), sequence (Q15059 2-726 limits assumed): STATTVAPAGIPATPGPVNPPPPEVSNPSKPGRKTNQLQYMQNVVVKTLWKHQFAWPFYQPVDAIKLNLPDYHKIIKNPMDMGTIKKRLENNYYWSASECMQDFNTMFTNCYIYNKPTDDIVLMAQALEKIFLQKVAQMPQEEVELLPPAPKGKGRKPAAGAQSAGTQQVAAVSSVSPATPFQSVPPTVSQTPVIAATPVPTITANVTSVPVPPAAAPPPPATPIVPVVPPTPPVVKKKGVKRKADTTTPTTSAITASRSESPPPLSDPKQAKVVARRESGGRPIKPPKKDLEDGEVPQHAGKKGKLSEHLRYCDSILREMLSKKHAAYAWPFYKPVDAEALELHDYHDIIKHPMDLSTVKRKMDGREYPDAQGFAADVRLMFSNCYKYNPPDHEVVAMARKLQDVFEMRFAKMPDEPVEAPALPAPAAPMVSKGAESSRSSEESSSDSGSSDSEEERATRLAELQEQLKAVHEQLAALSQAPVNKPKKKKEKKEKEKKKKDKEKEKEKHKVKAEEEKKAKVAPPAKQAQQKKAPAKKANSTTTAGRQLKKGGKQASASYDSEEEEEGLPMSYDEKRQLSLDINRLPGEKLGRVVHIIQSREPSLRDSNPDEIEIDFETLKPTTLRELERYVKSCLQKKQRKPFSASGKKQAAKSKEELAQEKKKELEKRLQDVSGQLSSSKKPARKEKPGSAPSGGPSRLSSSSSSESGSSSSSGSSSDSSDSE
# [3] = biological target: E3 ubiquitin-protein ligase TRIM33 (Homo sapiens) (UniProt Q9UPN9); experiment: Inhibition of TRIM33 (unknown origin) assessed as remaining activity
# [4] = biological target: T1, Bromodomain-containing protein 4 (Homo sapiens, UniProt O60885); experiment: Inhibition of N-terminal GST-tagged/C-terminal 6His-tagged BRD4 BD1 (47 to 170 residues) (unknown origin) expressed in Escherichia coli BL21 (DE3) using SGRGK(Ac)GGK(Ac)GLGK(Ac) GGAK(Ac)RHRK-biotinylated peptide as substrate incubated for 60 mins by alpha screen assay
# [5] = biological target: Bromodomain and WD repeat-containing protein 1 (Homo sapiens) (UniProt Q9NSI6); experiment: Inhibition of WDR9 BD2 (unknown origin) assessed as remaining activity
# [6] = biological target: ATPase family AAA domain-containing protein 2B (Homo sapiens) (UniProt Q9ULI0); experiment: Inhibition of ATAD2B (unknown origin) assessed as remaining activity
# [7] = biological target: Histone acetyltransferase KAT2A (Homo sapiens) (UniProt Q92830); experiment: Inhibition of GCN5L2 (unknown origin) assessed as remaining activity
# Histone acetyltransferase KAT2A (Homo sapiens), sequence (Q92830 2-837 limits assumed): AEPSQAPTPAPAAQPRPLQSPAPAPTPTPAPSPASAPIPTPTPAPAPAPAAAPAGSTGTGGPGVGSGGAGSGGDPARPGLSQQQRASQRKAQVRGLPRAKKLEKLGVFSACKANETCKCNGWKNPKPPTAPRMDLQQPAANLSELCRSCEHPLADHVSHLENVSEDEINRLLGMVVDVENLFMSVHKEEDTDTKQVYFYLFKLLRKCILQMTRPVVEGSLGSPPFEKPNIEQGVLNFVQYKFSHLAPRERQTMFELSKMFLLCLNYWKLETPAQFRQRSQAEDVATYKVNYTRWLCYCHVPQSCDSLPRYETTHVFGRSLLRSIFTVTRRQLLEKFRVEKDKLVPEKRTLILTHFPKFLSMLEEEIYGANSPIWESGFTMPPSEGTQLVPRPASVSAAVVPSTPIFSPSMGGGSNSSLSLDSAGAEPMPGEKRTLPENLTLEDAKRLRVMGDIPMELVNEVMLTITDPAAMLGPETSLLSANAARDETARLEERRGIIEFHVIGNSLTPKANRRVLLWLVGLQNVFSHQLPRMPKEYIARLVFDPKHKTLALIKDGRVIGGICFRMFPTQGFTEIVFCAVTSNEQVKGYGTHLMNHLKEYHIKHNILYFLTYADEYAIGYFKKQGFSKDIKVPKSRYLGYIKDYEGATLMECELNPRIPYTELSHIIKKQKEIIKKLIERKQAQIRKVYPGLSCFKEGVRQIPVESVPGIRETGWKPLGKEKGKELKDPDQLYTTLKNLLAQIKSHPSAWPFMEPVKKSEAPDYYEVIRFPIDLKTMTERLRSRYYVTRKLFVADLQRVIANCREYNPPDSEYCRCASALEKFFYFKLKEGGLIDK
# [8] = biological target: Bromodomain testis-specific protein (Homo sapiens) (UniProt Q58F21); experiment: Inhibition of BRDT BD2 (unknown origin) assessed as remaining activity
# [9] = biological target: T1, Bromodomain-containing protein 4; experiment: Inhibition of BRD4 BD1 (unknown origin) assessed as remaining activity
# Peregrin (Homo sapiens) = Peregrin (Homo sapiens) (UniProt P55201); experiment: Inhibition of BRPF1 (unknown origin) assessed as remaining activity
# [10] = biological target: Bromodomain-containing protein 3 (Homo sapiens) (UniProt Q15059); experiment: Inhibition of BRD3 BD1 (unknown origin) assessed as remaining activity
# [11] = biological target: Transcription initiation factor TFIID subunit 1-like (Homo sapiens) (UniProt Q8IZX4); experiment: Inhibition of TAF1L BD2 (unknown origin) assessed as remaining activity
# [12] = biological target: Bromodomain adjacent to zinc finger domain protein 2B (Homo sapiens) (UniProt Q9UIF8); experiment: Inhibition of BAZ2B (unknown origin) assessed as remaining activity
# [13] = biological target: T1, Bromodomain-containing protein 4; experiment: Inhibition of BRD4 BD2 (unknown origin) assessed as remaining activity
# [14] = biological target: Bromodomain and PHD finger-containing protein 3 (Homo sapiens) (UniProt Q9ULD4); experiment: Inhibition of BRPF3 (unknown origin) assessed as remaining activity
# [15] = biological target: Nucleosome-remodeling factor subunit BPTF (Homo sapiens) (UniProt Q12830); experiment: Inhibition of FALZ (unknown origin) assessed as remaining activity
# [16] = biological target: T1, Bromodomain-containing protein 4; experiment: Inhibition of BRD4 BD2 (unknown origin) using SGRGK(Ac)GGK(Ac)GLGK(Ac) GGAK(Ac)RHRK-biotinylated peptide as substrate incubated for 60 mins by alpha screen assay
# [17] = biological target: Histone acetyltransferase p300 (Homo sapiens) (UniProt Q09472); experiment: Inhibition of EP300 (unknown origin) assessed as remaining activity
# [18] = biological target: Bromodomain adjacent to zinc finger domain protein 2A (Homo sapiens) (UniProt Q9UIF9); experiment: Inhibition of BAZ2A (unknown origin) assessed as remaining activity
# [19] = biological target: Protein polybromo-1 (Homo sapiens) (UniProt Q86U86); experiment: Inhibition of PBRM1 BD5 (unknown origin) assessed as remaining activity
# Protein polybromo-1 (Homo sapiens), sequence (Q86U86 whole entry): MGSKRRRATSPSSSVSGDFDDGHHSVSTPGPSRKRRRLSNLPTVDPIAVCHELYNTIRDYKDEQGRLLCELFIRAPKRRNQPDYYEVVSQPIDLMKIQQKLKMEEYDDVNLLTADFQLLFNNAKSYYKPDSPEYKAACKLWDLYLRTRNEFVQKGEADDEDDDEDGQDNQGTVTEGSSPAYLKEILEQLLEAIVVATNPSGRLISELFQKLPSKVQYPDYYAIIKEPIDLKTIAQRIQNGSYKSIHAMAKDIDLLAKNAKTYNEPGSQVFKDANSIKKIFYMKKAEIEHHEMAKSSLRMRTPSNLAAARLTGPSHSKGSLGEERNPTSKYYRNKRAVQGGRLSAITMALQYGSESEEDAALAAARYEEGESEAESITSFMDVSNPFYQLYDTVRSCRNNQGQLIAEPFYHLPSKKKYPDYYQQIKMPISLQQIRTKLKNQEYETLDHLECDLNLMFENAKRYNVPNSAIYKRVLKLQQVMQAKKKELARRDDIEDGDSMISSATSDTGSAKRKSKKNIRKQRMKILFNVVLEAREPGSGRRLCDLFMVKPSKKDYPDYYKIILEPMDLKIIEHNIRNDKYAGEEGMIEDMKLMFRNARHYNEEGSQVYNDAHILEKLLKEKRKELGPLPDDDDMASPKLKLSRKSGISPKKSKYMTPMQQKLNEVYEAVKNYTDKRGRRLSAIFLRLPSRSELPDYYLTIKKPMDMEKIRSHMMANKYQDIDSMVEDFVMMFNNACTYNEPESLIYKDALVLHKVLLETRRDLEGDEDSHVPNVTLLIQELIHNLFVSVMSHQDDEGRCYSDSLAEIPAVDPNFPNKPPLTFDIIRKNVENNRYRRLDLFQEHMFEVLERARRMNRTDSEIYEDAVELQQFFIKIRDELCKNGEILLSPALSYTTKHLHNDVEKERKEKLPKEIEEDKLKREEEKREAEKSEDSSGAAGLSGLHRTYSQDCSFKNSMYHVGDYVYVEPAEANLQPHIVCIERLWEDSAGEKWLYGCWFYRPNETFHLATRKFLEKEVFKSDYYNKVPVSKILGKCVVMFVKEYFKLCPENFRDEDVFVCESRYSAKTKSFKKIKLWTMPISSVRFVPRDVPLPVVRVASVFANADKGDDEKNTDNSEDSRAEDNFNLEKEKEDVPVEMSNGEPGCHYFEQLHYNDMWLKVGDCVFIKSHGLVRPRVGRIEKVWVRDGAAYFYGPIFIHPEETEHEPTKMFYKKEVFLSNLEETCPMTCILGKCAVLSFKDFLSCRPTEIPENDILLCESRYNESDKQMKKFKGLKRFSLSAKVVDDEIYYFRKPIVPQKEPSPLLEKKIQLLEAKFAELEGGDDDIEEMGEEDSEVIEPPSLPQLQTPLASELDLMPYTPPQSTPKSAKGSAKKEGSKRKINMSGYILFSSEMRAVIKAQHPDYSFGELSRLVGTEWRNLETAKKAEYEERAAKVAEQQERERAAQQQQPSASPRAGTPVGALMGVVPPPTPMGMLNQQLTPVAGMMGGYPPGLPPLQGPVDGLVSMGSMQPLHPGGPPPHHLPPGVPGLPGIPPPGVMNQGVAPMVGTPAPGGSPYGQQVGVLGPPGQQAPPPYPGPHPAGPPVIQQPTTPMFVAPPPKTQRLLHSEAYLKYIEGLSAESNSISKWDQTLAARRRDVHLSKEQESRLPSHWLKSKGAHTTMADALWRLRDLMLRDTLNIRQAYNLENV
# [20] = biological target: Transcription intermediary factor 1-alpha (Homo sapiens) (UniProt O15164); experiment: Inhibition of TRIM24 (unknown origin) assessed as remaining activity
# [21] = biological target: Bromodomain-containing protein 1 (Homo sapiens) (UniProt O95696); experiment: Inhibition of BRD1 (unknown origin) assessed as remaining activity
# Bromodomain-containing protein 1 (Homo sapiens), sequence (O95696 whole entry, the tested form may be a part): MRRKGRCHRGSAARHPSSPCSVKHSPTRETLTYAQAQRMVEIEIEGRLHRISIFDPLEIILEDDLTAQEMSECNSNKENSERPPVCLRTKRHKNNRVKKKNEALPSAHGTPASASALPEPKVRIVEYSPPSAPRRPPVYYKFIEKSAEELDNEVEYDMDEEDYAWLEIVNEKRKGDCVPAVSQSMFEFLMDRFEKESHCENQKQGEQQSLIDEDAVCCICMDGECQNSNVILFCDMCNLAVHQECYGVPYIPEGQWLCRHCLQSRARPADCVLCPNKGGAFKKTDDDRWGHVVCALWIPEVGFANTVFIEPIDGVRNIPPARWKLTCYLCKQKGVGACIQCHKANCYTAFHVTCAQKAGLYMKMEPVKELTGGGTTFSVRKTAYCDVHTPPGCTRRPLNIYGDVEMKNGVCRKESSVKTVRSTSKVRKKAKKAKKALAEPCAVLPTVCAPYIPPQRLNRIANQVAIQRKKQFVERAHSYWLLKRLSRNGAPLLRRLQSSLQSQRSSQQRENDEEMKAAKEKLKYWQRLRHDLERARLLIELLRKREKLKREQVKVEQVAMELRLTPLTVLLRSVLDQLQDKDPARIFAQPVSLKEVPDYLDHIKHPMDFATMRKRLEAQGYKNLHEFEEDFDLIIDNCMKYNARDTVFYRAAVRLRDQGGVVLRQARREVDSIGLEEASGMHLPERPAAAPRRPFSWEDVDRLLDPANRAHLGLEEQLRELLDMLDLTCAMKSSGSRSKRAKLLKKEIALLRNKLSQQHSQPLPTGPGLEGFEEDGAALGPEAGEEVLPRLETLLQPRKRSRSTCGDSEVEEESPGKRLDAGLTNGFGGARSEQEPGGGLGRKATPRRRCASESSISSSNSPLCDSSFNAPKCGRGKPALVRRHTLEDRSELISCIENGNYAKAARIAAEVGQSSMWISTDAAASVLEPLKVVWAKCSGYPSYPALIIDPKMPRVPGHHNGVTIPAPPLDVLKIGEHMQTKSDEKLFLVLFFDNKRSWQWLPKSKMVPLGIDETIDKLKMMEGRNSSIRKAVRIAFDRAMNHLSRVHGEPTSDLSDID
# [22] = biological target: ATPase family AAA domain-containing protein 2 (Homo sapiens) (UniProt Q6PL18); experiment: Inhibition of ATAD2A (unknown origin) assessed as remaining activity
# [23] = biological target: Protein polybromo-1 (Homo sapiens) (UniProt Q86U86); experiment: Inhibition of PBRM1 BD2 (unknown origin) assessed as remaining activity
# [24] = biological target: Bromodomain-containing protein 9 (Homo sapiens) (UniProt Q9H8M2); experiment: Inhibition of BRD9 (unknown origin) assessed as remaining activity
# [25] = biological target: Chromatin remodeling regulator CECR2 (Homo sapiens) (UniProt Q9BXF3); experiment: Inhibition of CECR2 (unknown origin) assessed as remaining activity
# [26] = biological target: SWI/SNF-related matrix-associated actin-dependent regulator of chromatin subfamily A member 2 (Homo sapiens) (UniProt P51531); experiment: Inhibition of SMARCA2 (unknown origin) assessed as remaining activity
# [27] = biological target: Bromodomain testis-specific protein (Homo sapiens) (UniProt Q58F21); experiment: Inhibition of BRDT BD1 (unknown origin) assessed as remaining activity
# [28] = biological target: Transcription initiation factor TFIID subunit 1 (Homo sapiens) (UniProt P21675); experiment: Inhibition of TAF1 BD2 (unknown origin) assessed as remaining activity
# [29] = Microsomal stability in human liver microsomes assessed as parent compound remaining measured after 30 mins; type: ADME, Microsome; settings: read-out: Stability
# [30] = biological target: Bromodomain-containing protein 2 (Homo sapiens) (UniProt P25440); experiment: Inhibition of BRD2 BD2 (unknown origin) assessed as remaining activity
# Bromodomain-containing protein 2 (Homo sapiens), sequence (P25440 whole entry, looked up): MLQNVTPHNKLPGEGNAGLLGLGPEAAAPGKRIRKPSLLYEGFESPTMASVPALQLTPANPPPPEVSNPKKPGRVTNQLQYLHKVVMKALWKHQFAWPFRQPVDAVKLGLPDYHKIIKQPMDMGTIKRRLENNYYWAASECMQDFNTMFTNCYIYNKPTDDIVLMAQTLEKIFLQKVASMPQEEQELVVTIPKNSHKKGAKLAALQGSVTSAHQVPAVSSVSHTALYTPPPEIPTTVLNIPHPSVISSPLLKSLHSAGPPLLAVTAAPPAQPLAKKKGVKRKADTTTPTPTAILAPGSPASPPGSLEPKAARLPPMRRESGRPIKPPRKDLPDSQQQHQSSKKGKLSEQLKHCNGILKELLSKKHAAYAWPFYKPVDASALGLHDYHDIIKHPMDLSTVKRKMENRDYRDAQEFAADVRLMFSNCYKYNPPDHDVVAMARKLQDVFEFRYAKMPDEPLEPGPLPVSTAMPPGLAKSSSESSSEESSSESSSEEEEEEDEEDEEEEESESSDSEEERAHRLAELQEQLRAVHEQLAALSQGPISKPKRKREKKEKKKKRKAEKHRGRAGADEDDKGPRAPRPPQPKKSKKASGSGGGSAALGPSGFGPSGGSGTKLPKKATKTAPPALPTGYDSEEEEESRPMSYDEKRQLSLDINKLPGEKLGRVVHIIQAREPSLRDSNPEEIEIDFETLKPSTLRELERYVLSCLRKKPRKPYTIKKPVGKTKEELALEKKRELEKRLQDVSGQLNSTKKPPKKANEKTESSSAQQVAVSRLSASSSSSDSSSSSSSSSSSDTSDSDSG
# [31] = biological target: CREB-binding protein (Homo sapiens) (UniProt Q92793); experiment: Inhibition of CREBBP (unknown origin) assessed as remaining activity
# [32] = biological target: Bromodomain-containing protein 7 (Homo sapiens) (UniProt Q9NPI1); experiment: Inhibition of BRD7 (unknown origin) assessed as remaining activity
# [33] = biological target: Histone acetyltransferase KAT2B (Homo sapiens) (UniProt Q92831); experiment: Inhibition of PCAF (unknown origin) assessed as remaining activity
# [34] = biological target: Bromodomain-containing protein 2 (Homo sapiens) (UniProt P25440); experiment: Inhibition of BRD2 BD1 (unknown origin) assessed as remaining activity
# [35] = Microsomal stability in mouse liver microsomes assessed as parent compound remaining measured after 30 mins; type: ADME, Microsome; settings: read-out: Stability
structure (smiles),measurement,setting,value
COCC(C)Nc1ccc(NS(=O)(=O)N(C)C)c(Nc2ccc3[nH]nnc3c2)n1 (stereo unspecified),Activity,[1],75%
same,Activity,[2],35%
same,Activity,[3],92%
same,IC50,[4],2.86 µM
same,Activity,[5],44%
same,Activity,[6],55%
same,Activity,[7],88%
same,Activity,[8],32%
same,Activity,[9],0.45%
same,Activity,Peregrin (Homo sapiens),78%
same,Activity,[10],0.95%
same,Activity,[11],86%
same,Activity,[12],84%
same,Activity,[13],22%
same,Activity,[14],71%
same,Activity,[15],77%
same,IC50,[16],8.01 µM
same,Activity,[17],82%
same,Activity,[18],82%
same,Activity,[19],73%
same,Activity,[20],98%
same,Activity,[21],42%
same,Activity,[22],66%
same,Activity,[23],44%
same,Activity,[24],64%
same,Activity,[25],73%
same,Activity,[26],62%
same,Activity,[27],2.7%
same,Activity,[28],31%
same,remaining at 0.5 h,[29],32.9%
same,Activity,[30],19%
same,Activity,[31],88%
same,Activity,[32],67%
same,Activity,[33],88%
same,Activity,[34],0%
same,remaining at 0.5 h,[35],28%
